Test results taken from paper PMC11423305, “Structure-Based Design of CBP/EP300 Degraders: When Cooperativity Overcomes Affinity” (JACS Au, 2024).
Entries after “also recorded” stand apart in the source; their conditions may differ.

Tests used:
EP300 = molecular target: T1, EP300 (Homo sapiens, UniProt Q09472); experiment: Quantification of EP300 degradation by Western blotting in LP1 cells; format: cell-based; details: 5 μM compound, 16 h, Western blot
T1 construct: quantification of CBP and EP300 levels by Western blotting following 16 h treatment of LP1 cells; endogenous in cells; host or cells: LP1 cells
Experimental: LP1 cells were cultured in DMEM (Gibco, 41966-029) supplemented with 15 % FBS (Sigma, F9665); MM1S and LNCaP cells in RPMI 1640 ATCC modification (Gibco, […]
DMEM/F12 (Gibco, 11320074) supplemented with 1 % non-essential amino acids […]
additionally supplemented with 1 % penicillin/streptomycin (Gibco, 15070-063), and cells maintained in a humidified incubator with 5 % CO2 at 37 °C. The identity of all lines (except for MM1S which were recently purchased from ATCC) was authenticated by STR profiling (performed by Microsynth).
Quantification of CBP/EP300 degradation by Western blotting
LP1 cells plated on 6 well plates were treated with the stated compounds at a final concentration of 0.1 % DMSO for the stated time. Cells were harvested on ice, washed in PBS and lysed in RIPA buffer (50 mM tris pH 7.5, 2 mM EDTA, 150 mM NaCl, 0.5 % sodium deoxycholate, 1 % Triton X100) supplemented with cOmplete ™ protease inhibitor cocktail (Roche). Protein concentrations were determined using the Pierce ™ BCA Protein Assay Kit (Thermo Scientific, 23227) and equal amounts were separated on 4-12 % ExpressPl us™ PAGE gels (GenScript, M41215). Proteins were transferred to PVDF membranes, the membranes were blocked with 5 % milk (Merk Millipore, 115363) in PBS-T and proteins were stained with the following antibodies at 4 °C overnight: CBP […]
BRD4 (Bethyl Laboratories, A301-985A50, diluted 1:2000) and vinculin (Invitrogen, 42H89L44, diluted 1:1000). For detection, membranes were incubated for 1 h at room temperature with HRP-conjugated secondary antibodies (Southern Biotech, anti-rabbit […]
SuperSignal™ West Pico PLUS Chemiluminescent Substrate (Thermo Scientific, 34580) and the Vilber Fusion-FX7 imager. Bands were quantified using ImageJ software and protein levels normalized to protein from DMSO treated cells run on the same membrane. For dose response curves, data was fitted using a four -parameter dose-response curve in GraphPad Prism v. 9.5.1, where the top is fixed at 100 %. The DC50 was defined as the PROTAC concentration resulting in 50 % remaining protein. […]

SH-SY5Y cells = experiment: Cell viability (resazurin), SH-SY5Y; format: cell-based; details: 3 day treatment
Experimental: normalized to DMSO treated lanes on the same membrane. (Several compounds were
measured at the same time, so DMSO treated lanes are replicated here between
Figure S5. Anti-proliferation in additional cell lines. LNCaP (A and C) and SH-SY5Y (B)
cell viability following 3 day compound treatment, and LNCaP following 6 day treatment
(D), determined using resazurin.
After 3 days of treatment, dCE-2 only has a mild effect on the proliferation of LNCaP and
SH-SY5Y cells (Figure S5A and B).
the new CBP/EP300 PROTACs CBPD -268 and CBPD-4092,3 which have enhanced anti-
proliferative activity in LNcaP cells relative to their parent inhibitor s. However, although
these PROTACs have effects at very low concentrations, their effect plateaus and a
substantial proportion of cells remain viable at high compound concentrations. Similarly,
degradation of CBP and EP300, the maximal effect of this PROTAC is also limited under
the conditions we used (Figure S5C). Through this work it was clear to us that these […]
The primer sequences used were:
Gene Gene ID Forward Primer (5’-3’) Reverse primer (5’-3’)
myc NM_001354870.1 GTAGTGGAAAACCAGCC […]
Fluorescence (excitation = 560 nm, emission = 590 nm) was measured using a
spectraMax M5 microplate reader (Molecular Devices) and cell viability was calculated […]
values were calculated as the concentration required to inhibit cell viability to 50 % […]

T1 sequence (Q09472 whole entry): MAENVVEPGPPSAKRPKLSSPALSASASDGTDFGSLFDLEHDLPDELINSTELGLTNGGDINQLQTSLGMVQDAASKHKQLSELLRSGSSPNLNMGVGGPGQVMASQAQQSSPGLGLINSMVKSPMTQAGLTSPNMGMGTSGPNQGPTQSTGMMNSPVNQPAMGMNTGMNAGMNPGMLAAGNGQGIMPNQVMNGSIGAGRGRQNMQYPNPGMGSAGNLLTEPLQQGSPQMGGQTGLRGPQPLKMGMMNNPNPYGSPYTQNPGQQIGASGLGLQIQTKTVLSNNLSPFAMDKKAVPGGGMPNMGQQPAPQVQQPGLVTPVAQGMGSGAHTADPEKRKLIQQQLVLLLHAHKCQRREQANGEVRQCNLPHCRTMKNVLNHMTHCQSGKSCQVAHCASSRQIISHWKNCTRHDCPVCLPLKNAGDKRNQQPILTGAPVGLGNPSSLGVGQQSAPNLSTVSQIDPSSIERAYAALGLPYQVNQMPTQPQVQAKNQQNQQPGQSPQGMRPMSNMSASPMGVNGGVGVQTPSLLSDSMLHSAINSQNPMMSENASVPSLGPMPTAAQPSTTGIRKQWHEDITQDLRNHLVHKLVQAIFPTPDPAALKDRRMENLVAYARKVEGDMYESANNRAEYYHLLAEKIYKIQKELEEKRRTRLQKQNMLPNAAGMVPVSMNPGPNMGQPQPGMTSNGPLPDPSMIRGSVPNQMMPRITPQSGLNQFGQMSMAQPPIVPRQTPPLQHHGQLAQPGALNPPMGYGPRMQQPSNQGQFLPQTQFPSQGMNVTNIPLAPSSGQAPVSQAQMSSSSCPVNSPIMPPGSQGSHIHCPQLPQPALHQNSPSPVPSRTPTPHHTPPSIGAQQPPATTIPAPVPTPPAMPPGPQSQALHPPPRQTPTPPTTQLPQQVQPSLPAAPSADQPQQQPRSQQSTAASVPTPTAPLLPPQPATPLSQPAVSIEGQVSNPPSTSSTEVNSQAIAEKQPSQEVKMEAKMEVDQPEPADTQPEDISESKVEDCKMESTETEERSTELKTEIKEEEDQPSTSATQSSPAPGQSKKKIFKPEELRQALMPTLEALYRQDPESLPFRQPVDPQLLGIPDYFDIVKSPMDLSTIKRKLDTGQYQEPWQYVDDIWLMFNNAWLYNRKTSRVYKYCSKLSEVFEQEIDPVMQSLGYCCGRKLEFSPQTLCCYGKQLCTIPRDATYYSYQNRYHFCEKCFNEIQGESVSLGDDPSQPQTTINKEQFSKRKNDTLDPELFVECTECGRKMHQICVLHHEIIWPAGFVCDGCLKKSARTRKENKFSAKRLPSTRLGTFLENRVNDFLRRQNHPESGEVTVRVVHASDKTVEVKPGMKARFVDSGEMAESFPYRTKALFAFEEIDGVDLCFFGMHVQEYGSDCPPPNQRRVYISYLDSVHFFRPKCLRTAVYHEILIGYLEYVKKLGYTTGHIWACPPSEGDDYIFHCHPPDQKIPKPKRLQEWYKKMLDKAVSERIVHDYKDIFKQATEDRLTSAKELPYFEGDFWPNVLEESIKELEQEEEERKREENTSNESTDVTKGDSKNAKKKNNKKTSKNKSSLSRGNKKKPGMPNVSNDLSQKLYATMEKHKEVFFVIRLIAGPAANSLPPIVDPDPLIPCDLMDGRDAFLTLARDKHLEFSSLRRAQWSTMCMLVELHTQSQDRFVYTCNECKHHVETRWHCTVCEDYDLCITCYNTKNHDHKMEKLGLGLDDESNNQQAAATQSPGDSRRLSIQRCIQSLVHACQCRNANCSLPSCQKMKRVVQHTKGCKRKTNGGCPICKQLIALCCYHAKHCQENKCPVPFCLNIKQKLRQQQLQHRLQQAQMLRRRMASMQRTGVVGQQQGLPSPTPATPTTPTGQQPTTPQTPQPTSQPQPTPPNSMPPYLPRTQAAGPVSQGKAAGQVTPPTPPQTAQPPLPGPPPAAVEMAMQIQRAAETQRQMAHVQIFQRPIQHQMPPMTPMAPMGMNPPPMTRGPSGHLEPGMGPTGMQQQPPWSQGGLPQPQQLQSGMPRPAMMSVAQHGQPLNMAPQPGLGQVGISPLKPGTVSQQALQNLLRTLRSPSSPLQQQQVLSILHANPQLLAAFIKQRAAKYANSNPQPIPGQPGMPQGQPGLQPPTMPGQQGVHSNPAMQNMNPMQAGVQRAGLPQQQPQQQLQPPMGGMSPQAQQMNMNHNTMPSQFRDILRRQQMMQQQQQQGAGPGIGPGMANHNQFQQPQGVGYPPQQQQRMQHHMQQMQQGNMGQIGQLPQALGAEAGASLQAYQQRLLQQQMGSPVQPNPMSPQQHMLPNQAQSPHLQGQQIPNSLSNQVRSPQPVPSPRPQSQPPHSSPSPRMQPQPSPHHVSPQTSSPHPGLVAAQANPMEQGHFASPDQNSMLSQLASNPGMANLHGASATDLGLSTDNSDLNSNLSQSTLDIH

`Cc1cc2c(NC(=O)c3cc(NC(=O)CCCCCCCCCCNc4cccc5c4C(=O)N(C4CCC(=O)NC4=O)C5=O)cc(-c4ccn(C)n4)c3)cccc2nn1` (centres unmarked) [dCE-2] was tested, and the “% remaining EP300” value (EP300) was 43% and the “effect on proliferation of SH-SY5Y cells” value (SH-SY5Y cells) was “mild effect; also recorded: limited effect”.
